From patent US9681664B2, “Macrocyclic picolinamides as fungicides” (Dow Agrosciences LLC, priority 2012, dated 2017)
Read-outs that look alike come from different tables or passages of the source.

Experiments:
[1] = system: Mycosphaerella graminicola; Anamorph: Septoria tritici; assay: Leaf blotch of wheat (SEPTTR) disease control on wheat seedlings; assay type: in vivo; settings: for pest or weed control at 100 ppm / pest or weed control at 121.5 g/ha: Zymoseptoria tritici; for pest or weed control at 121.5 g/ha: low volume application, 121.5 g/H
Summary of the method: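 Protective or curative format: Septoria tritici inoculation either preceded or followed fungicide application to first-leaf Yuma wheat. Severity scored 0–100%; control expressed versus untreated.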

[2] = system: Puccinia triticina; Synonym: Puccinia recondite f. sp. tritici; assay: Wheat brown rust (PUCCRT) disease control on wheat seedlings; assay type: in vivo; settings: for pest or weed control at 100 ppm / pest or weed control at 121.5 g/ha: Puccinia triticina; for pest or weed control at 121.5 g/ha: low volume application, 121.5 g/H
Summary of the method: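 Yuma wheat grown to first fully emerged leaf was inoculated with Puccinia triticina spore suspension either before or after fungicide treatment, held overnight at 22° C. and 100% RH in darkness, then kept at 24° C. Fungicide applied by booth sprayer to run-off (acetone/water, 110 ppm Triton X-100) or as EC by track spray.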

[3] = 24 h, High volume application, 100 ppm, 1 Day Protectant, read-out: SEPTTR 1DP disease control
[4] = 72 h, High volume application, 100 ppm, 3 Day Curative, read-out: SEPTTR 3DC disease control
[5] = 24 h, High volume application, 100 ppm, 1 Day Protectant, read-out: PUCCRT 1DP disease control
[6] = 72 h, High volume application, 100 ppm, 3 Day Curative, read-out: PUCCRT 3DC disease control
[7] = 24 h, Wheat Leaf Blotch, 1 Day Protectant, high volume application, 100 ppm, read-out: Disease Control SEPTTR 1 DP 100 ppm
[8] = 24 h, Wheat Leaf Blotch, 1 Day Protectant, read-out: Disease Control SEPTTR 1 DP 121.5 g/H
[9] = 72 h, Wheat Leaf Blotch, 3 Day Curative, high volume application, 100 ppm, read-out: Disease Control SEPTTR 3 DC 100 ppm
[10] = 72 h, Wheat Leaf Blotch, 3 Day Curative, read-out: Disease Control SEPTTR 3 DC 121.5 g/H
[11] = 24 h, Wheat Brown Rust, 1 Day Protectant, high volume application, 100 ppm, read-out: Disease Control PUCCRT 1 DP 100 ppm
[12] = 24 h, Wheat Brown Rust, 1 Day Protectant, read-out: Disease Control PUCCRT 1 DP 121.5 g/H
[13] = 72 h, Wheat Brown Rust, 3 Day Curative, high volume application, 100 ppm, read-out: Disease Control PUCCRT 3 DC 100 ppm
[14] = 72 h, Wheat Brown Rust, 3 Day Curative, read-out: Disease Control PUCCRT 3 DC 121.5 g/H
[15] = High volume application, 100 ppm, 1 Day Protectant
[16] = High volume application, 100 ppm, 3 Day Curative

Compound | pest or weed control at 100 ppm [1, 3] [%] | pest or weed control at 100 ppm [1, 4] [%] | pest or weed control at 100 ppm [2, 5] [%] | pest or weed control at 100 ppm [2, 6] [%] | other results
CCCCCO[C@H]1[C@H](C)OC(=O)[C@@H](NC(=O)c2nccc(OC)c2O)CCC[C@@H]1Oc1ccccc1 [F94] | 0 to 80 | 0 to 80 | 0 to 80 | < 0 | 
COc1ccnc(C(=O)N[C@H]2CCC[C@H](Oc3ccccc3)[C@@H](OC(=O)C3CCCC3)[C@H](C)OC2=O)c1OC(C)=O [F235] |  |  |  |  | pest or weed control at 100 ppm [1, 7]: 80 to 100%; pest or weed control at 121.5 g/ha [1, 8]: 80 to 100%; pest or weed control at 100 ppm [1, 9]: 80 to 100%; pest or weed control at 121.5 g/ha [1, 10]: 0 to 80%; pest or weed control at 100 ppm [2, 11]: 80 to 100%; pest or weed control at 121.5 g/ha [2, 12]: 80 to 100%; pest or weed control at 100 ppm [2, 13]: 80 to 100%; pest or weed control at 121.5 g/ha [2, 14]: 0 to 80%
COc1ccnc(C(=O)N[C@H]2CCC[C@H](OCC(C)C)[C@@H](Oc3ccc(F)cc3)[C@H](C)OC2=O)c1OCOC(=O)C(C)C [F62] | 80 to 100 | 80 to 100 | 80 to 100 | 80 to 100 | 
COCCC(=O)Oc1c(OC)ccnc1C(=O)N[C@H]1CCC[C@H](Oc2ccccc2)[C@@H](OC)[C@H](C)OC1=O [F260] |  |  |  |  | pest or weed control at 121.5 g/ha [1, 8]: 0 to 80%; pest or weed control at 121.5 g/ha [1, 10]: 80 to 100%; pest or weed control at 121.5 g/ha [2, 12]: 80 to 100%; pest or weed control at 121.5 g/ha [2, 14]: 80 to 100%
COc1ccnc(C(=O)N[C@H]2CCC[C@H](OC3CCCC3)[C@@H](OCCCc3ccccc3)[C@H](C)OC2=O)c1O [F163] | 80 to 100 | 0 to 80 | 80 to 100 | 80 to 100 | 
[4-methoxy-2-[[(3S,7S,8S,9S)-9-methyl-7,8-bis(2-methylallyloxy)-2-oxo-oxonan-3-yl]carbamoyl]-3-pyridyl]oxymethyl acetate [F16] |  |  |  |  | SEPTTR 1DP disease control [1, 15]: A (80-100); SEPTTR 3DC disease control [1, 16]: A (80-100); PUCCRT 1DP disease control [2, 15]: A (80-100); PUCCRT 3DC disease control [2, 16]: A (80-100)
COc1ccnc(C(=O)N[C@H]2CCC[C@H](Oc3ccc(C)cc3)[C@@H](Oc3ccc(C)cc3)[C@H](C)OC2=O)c1O [F113] | < 0 | 0 to 80 | 0 to 80 | 0 to 80 | 
COc1ccnc(C(=O)N[C@H]2CCC[C@H](Oc3ccccc3)[C@@H](OC)[C@H](C)OC2=O)c1O [F249] |  |  |  |  | pest or weed control at 100 ppm [1, 7]: 0 to 80%; pest or weed control at 100 ppm [1, 9]: 0 to 80%; pest or weed control at 100 ppm [2, 11]: 80 to 100%; pest or weed control at 100 ppm [2, 13]: 80 to 100%
COc1ccnc(C(=O)N[C@H]2CCC[C@H](OC(=O)C3CCCC3)[C@@H](OC3CCCC3)[C@H](C)OC2=O)c1OC(C)=O [F159] | 80 to 100 | 80 to 100 | 80 to 100 | 80 to 100 | 
CCCO[C@H]1CCC[C@H](NC(=O)c2nccc(OC)c2O)C(=O)O[C@@H](C)[C@@H]1Oc1cccc(Cl)c1 [F272] |  |  |  |  | pest or weed control at 100 ppm [1, 7]: 80 to 100%; pest or weed control at 100 ppm [1, 9]: 80 to 100%; pest or weed control at 100 ppm [2, 11]: 80 to 100%; pest or weed control at 100 ppm [2, 13]: 80 to 100%
CCCO[C@H]1[C@H](C)OC(=O)[C@@H](NC(=O)c2nccc(OC)c2O)CCC[C@@H]1Oc1cccc(F)c1 [F280] |  |  |  |  | pest or weed control at 100 ppm [1, 7]: 80 to 100%; pest or weed control at 100 ppm [1, 9]: 80 to 100%; pest or weed control at 100 ppm [2, 11]: 80 to 100%; pest or weed control at 100 ppm [2, 13]: 0 to 80%
COc1ccnc(C(=O)N[C@H]2CCC[C@H](OC(=O)C3CCCC3)[C@@H](OC3CCCC3)[C@H](C)OC2=O)c1OCOC(C)=O [F158] | 80 to 100 | 80 to 100 | 80 to 100 | 80 to 100 | 
COc1ccnc(C(=O)N[C@H]2CCC[C@H](OCC(C)C)[C@@H](Oc3ccc(C)cc3)[C@H](C)OC2=O)c1OCOC(=O)C(C)C [F101] | 80 to 100 | 80 to 100 | 80 to 100 | 80 to 100 | 
COc1ccnc(C(=O)N[C@H]2CCC[C@H](OCC(C)C)[C@@H](OC/C=C/C(F)(F)F)[C@H](C)OC2=O)c1OC(C)=O [F58] | 80 to 100 | 80 to 100 | 80 to 100 | 80 to 100 | 
COc1ccnc(C(=O)N[C@H]2CCC[C@H](Oc3ccccc3)[C@@H](OC)[C@H](C)OC2=O)c1OC(C)=O [F258] |  |  |  |  | pest or weed control at 121.5 g/ha [1, 8]: 0 to 80%; pest or weed control at 121.5 g/ha [1, 10]: 0 to 80%; pest or weed control at 121.5 g/ha [2, 12]: 80 to 100%; pest or weed control at 121.5 g/ha [2, 14]: 80 to 100%
CCCO[C@H]1[C@H](C)OC(=O)[C@@H](NC(=O)c2nccc(OC)c2OCOC(=O)C(C)C)CCC[C@@H]1Oc1ccccc1 [F97] | 80 to 100 | 80 to 100 | 80 to 100 | 80 to 100 | 
COc1ccnc(C(=O)N[C@H]2CCC[C@H](Oc3ccccc3)[C@@H](OC/C=C/C(F)(F)F)[C@H](C)OC2=O)c1OCOC(C)=O [F106] | 80 to 100 | 80 to 100 | 80 to 100 | 80 to 100 | 
COc1ccnc(C(=O)N[C@H]2CCC[C@H](OCC(C)C)[C@@H](OC)[C@H](C)OC2=O)c1OC(C)=O [F257] |  |  |  |  | pest or weed control at 121.5 g/ha [1, 8]: 80 to 100%; pest or weed control at 121.5 g/ha [1, 10]: 80 to 100%; pest or weed control at 121.5 g/ha [2, 12]: 80 to 100%; pest or weed control at 121.5 g/ha [2, 14]: 80 to 100%
CCCO[C@H]1[C@H](C)OC(=O)[C@@H](NC(=O)c2nccc(OC)c2O)CCC[C@@H]1Oc1ccc(F)cc1 [F264] |  |  |  |  | pest or weed control at 100 ppm [1, 7]: 80 to 100%; pest or weed control at 100 ppm [1, 9]: 0 to 80%; pest or weed control at 100 ppm [2, 11]: 0 to 80%; pest or weed control at 100 ppm [2, 13]: 80 to 100%
CCCO[C@H]1[C@H](C)OC(=O)[C@@H](NC(=O)c2nccc(OC)c2O)CCC[C@@H]1OCCC [F114] | 80 to 100 | 80 to 100 | 80 to 100 | 80 to 100 | 
COc1ccnc(C(=O)N[C@H]2CCC[C@H](OC(=O)C3CCCC3)[C@@H](OC(=O)C3CCCC3)[C@H](C)OC2=O)c1OC(C)=O [F91] | 80 to 100 | 80 to 100 | 80 to 100 | 80 to 100 | 
CCCO[C@H]1[C@H](C)OC(=O)[C@@H](NC(=O)c2nccc(OC)c2O)CCC[C@@H]1OC1CCCC1 [F118] | 80 to 100 | 0 to 80 | 80 to 100 | 80 to 100 | 
CCCCCO[C@H]1[C@H](C)OC(=O)[C@@H](NC(=O)c2nccc(OC)c2OC(C)=O)CCC[C@@H]1OCC(C)C [F89] | 80 to 100 | 80 to 100 | 80 to 100 | 80 to 100 | 
CCCO[C@H]1CCC[C@H](NC(=O)c2nccc(OC)c2OC(C)=O)C(=O)O[C@@H](C)[C@@H]1Oc1ccc(F)cc1 [F266] |  |  |  |  | pest or weed control at 121.5 g/ha [1, 8]: 80 to 100%; pest or weed control at 121.5 g/ha [2, 12]: 80 to 100%; pest or weed control at 121.5 g/ha [2, 14]: 80 to 100%
COc1ccnc(C(=O)N[C@H]2CCC[C@H](OCCCC(F)(F)F)[C@@H](Oc3ccccc3)[C@H](C)OC2=O)c1O [F129] | 80 to 100 | < 0 | 80 to 100 | 80 to 100 | 
COc1ccnc(C(=O)N[C@H]2CCC[C@H](OCC(C)C)[C@@H](OC3CCCCC3)[C@H](C)OC2=O)c1O [F210] | 80 to 100 | 80 to 100 | 80 to 100 | 80 to 100 | 
C=C(C)CO[C@H]1[C@H](C)OC(=O)[C@@H](NC(=O)c2nccc(OC)c2O)CCC[C@@H]1OCC(=C)C [F14, 3-hydroxy-4-methoxy-N-((3S,7S,8S,9S)-9-methyl-7,8-bis((2-methylallyl)oxy)-2-oxooxonan-3-yl)pyridine-2-carboxamide] | < 0 | 80 to 100 | 80 to 100 | 80 to 100 | 
COc1ccnc(C(=O)N[C@H]2CCC[C@H](Oc3ccc(F)cc3)[C@@H](OCC(C)C)[C@H](C)OC2=O)c1O [F56] | 80 to 100 | 80 to 100 | 80 to 100 | 80 to 100 | 
COc1ccnc(C(=O)N[C@H]2CCC[C@H](Oc3ccccc3)[C@@H](OC(=O)C3CCCC3)[C@H](C)OC2=O)c1O [F232] |  |  |  |  | pest or weed control at 100 ppm [1, 7]: 80 to 100%; pest or weed control at 100 ppm [1, 9]: 0 to 80%; pest or weed control at 100 ppm [2, 11]: 80 to 100%; pest or weed control at 100 ppm [2, 13]: 80 to 100%
